Experimental data from publication PMC4604124, “In Vitro Characterization of the Pharmacological Properties of the Anti-Cancer Chelator, Bp4eT, and Its Phase I Metabolites” (PLoS ONE, 2015).
“And” between values parts separate entries of the source, which are not always exact repeats. Equal entries are not always repeated.

What was measured:
[1] = system: cancer cells (HL-60, MCF-7, HCT116, A549) and non-cancerous cells (H9c2, 3T3); assay: MTT cytotoxicity assay, summary over the cell line panel; format: cell-based; details: HL-60, MCF-7, HCT116, A549; 72 h; read-out: IC50, range over cancer cells
Protocol: For cytotoxicity experiments, cancer cells were seeded at a density of 5,000 (MCF-7), 10,000 (HL-60) or 2,000 cells/well (HCT116 and A549) in 96-well plates (TPP) for 24 h/37°C prior to the addition of examined agents. The non-cancerous cells, 3T3 and H9c2 cells, were cultured for 24 h/37°C in 96-well plates at a density of 10,000 cells/well, the medium was then changed to serum- and pyruvate-free DMEM (Sigma-Aldrich) and incubated with the cells for another 24 h/37°C. The cytotoxic effects of Bp4eT and its metabolites were studied at different concentrations after a 72 h/37°C incubation. In order to aid the dissolution of the lipophilic ligands, 0.1% dimethyl sulfoxide (v/v) (DMSO; Sigma-Aldrich) was present in the culture medium of all groups. At this concentration, DMSO had no effect on cellular proliferation or viability.
The viability of cells were determined using an MTT assay (Sigma-Aldrich) according to previously established methods. The optical density of soluble MTT was measured at λ = 570 nm, subtracting the λ = 690 nm background using a Tecan Infinite 200M plate reader (Tecan Group, Männedorf, Switzerland). The viability or proliferation of experimental groups was expressed as a percentage of the untreated controls (100%).
SigmaStat for Windows 3.5 (Systat Software, San Jose, CA, USA) statistical software package was utilized to analyze results. The data are expressed as the mean ± SD of a given number of experiments. Statistical significance was determined using a one-way ANOVA with a Bonferroni post-hoc test or Student’s t-test. The results were considered to be statistically significant when p < 0.05. The IC50 values were calculated using CalcuSyn 2.0 software (Biosoft, Cambridge, UK). Cell cycle analysis was evaluated using MultiCycle AV Software (Phoenix Flow Systems, San Diego, CA, USA).

[2] = Ascorbate oxidation assay (redox activity of iron complexes); format: biochemical;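 on %Fe 30min (ascorbate oxidation, Fe 100%), průměr: IBE 3 means excess free chelator over iron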;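 on %Fe 30min (ascorbate oxidation, Fe 100%): IBE 3 means excess free chelator over iron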;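 on %Fe 30min (ascorbate oxidation, Fe = 100%), průměr (mean): IBE 1 means iron-binding equivalents giving fully coordinated iron-chelator complexes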;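 on %Fe 30min (ascorbate oxidation, Fe = 100%), single replicates: IBE 1 means iron-binding equivalents giving fully coordinated iron-chelator complexes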;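 on %Fe 30min: ascorbate oxidation as % of the Fe control (Fe 100%): IBE 0.1 means iron-binding equivalents with iron in excess over chelator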;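 on Change of absorbance, odečet 0 (time 0 subtracted), čas 10, průměr: IBE 3 means excess free chelator over 10 µM FeCl3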;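 on Change of absorbance, odečet 0 (time 0 subtracted), čas 10: IBE 3 means excess free chelator over 10 µM FeCl3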;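 on Change of absorbance, odečet 0 (time 0 subtracted), čas 20, průměr: 100 µM ascorbate with 10 µM FeCl3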;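 on Change of absorbance, odečet 0 (time 0 subtracted), čas 20: 100 µM ascorbate with 10 µM FeCl3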;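 on Change of absorbance, odečet 0 (time 0 subtracted), čas 30, průměr: 100 µM ascorbate with 10 µM FeCl3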;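 on Change of absorbance, odečet 0 (time 0 subtracted), čas 30: 100 µM ascorbate with 10 µM FeCl3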;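 on odečet 0 (reading minus time 0 reading) at čas 20, single replicates: IBE 1 means fully coordinated iron chelator complexes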;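 on odečet 0 (reading minus time 0 reading) at čas 30, průměr (mean): IBE 1 means fully coordinated iron chelator complexes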;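 on odečet 0 (reading minus time 0 reading) at čas 30, single replicates: IBE 1 means fully coordinated iron chelator complexes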;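 on raw reading at čas 20 (time 20), průměr (mean): IBE 1 means fully coordinated iron chelator complexes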;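 on raw reading at čas 20 (time 20), single replicates: IBE 1 means fully coordinated iron chelator complexes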;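 on raw reading at čas 30 (time 30), průměr (mean): IBE 1 means fully coordinated iron chelator complexes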;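 on raw reading at čas 30 (time 30), single replicates: IBE 1 means fully coordinated iron chelator complexes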
caspase 8 = assay: Caspase activity, luminescent kit, caspase 8; format: cell-based, human; details: for kaspáza 8, raw signal / kaspáza 8, signal / viabilita: individual experiments by date; for kaspáza 8, raw signal, průměry / kaspáza 8, % kontroly / kaspáza 8, signal / viabilita, průměry: mean; for kaspáza 8, % kontroly / kaspáza 8, signal / viabilita / kaspáza 8, signal / viabilita, průměry: normalised to viability
Protocol: To assess the effect of the compounds on caspase activity, MCF-7 cells were incubated with 100 nM Bp4eT or its metabolites for 3, 24 or 72 h/37°C in 96-well plates, as described above. The cells were then lysed by adding 100 μL of cold lysis buffer (100 mM HEPES, 10 mM CHAPS, 10 mM D-L-dithiothreitol, pH 7.4) to 100 μL of medium in each well. Lysates were immediately frozen at -80°C. Thawed lysates were used to assess caspase activity using luminescent kits for caspases 3/7, 8 and 9 (Promega, Madison, WI, USA). The luminescence was measured using the Tecan Infinite 200M plate reader. Caspase activity in the experimental groups was corrected according to the cellular viability of each group and expressed as a percentage of activity of the untreated control (100%).

[3] = sheet IBE 1, time 10, replicates
[4] = sheet IBE 1, time 20, replicates
[5] = sheet IBE 1, time 30, replicates

CCN=CNN=C(c1ccccc1)c1ccccn1 [Bp4eA, N ^3-ethyl-N ^1-[phenyl(pyridin-2-yl)methylene]formamidrazone]
IC50 [1]: 52 to 207 µM
%Fe 30min: ascorbate oxidation as % of the Fe control (Fe 100%) ([2]; IBE 0.1, 30 min, mean (průměr)): 102.5%
Change of absorbance after subtraction of time 0 (odečet 0) ([2]; IBE 0.1, time 10, mean (průměr)): -0.03561
Change of absorbance after subtraction of time 0 (odečet 0) ([2]; IBE 0.1, time 20, mean (průměr)): -0.0674
Change of absorbance after subtraction of time 0 (odečet 0) ([2]; IBE 0.1, time 30, mean (průměr)): -0.09706
Absorbance (ascorbate, λ = 265 nm) ([2]; IBE 0.1, čas 0 (time 0), mean (průměr)): 0.8401
Absorbance (ascorbate, λ = 265 nm) ([2]; IBE 0.1, čas 10 (time 10), mean (průměr)): 0.8044
Absorbance (ascorbate, λ = 265 nm) ([2]; IBE 0.1, čas 20 (time 20), mean (průměr)): 0.7727
Absorbance (ascorbate, λ = 265 nm) ([2]; IBE 0.1, čas 30 (time 30), mean (průměr)): 0.743
%Fe 30min (ascorbate oxidation, Fe = 100%), průměr (mean) ([2]; sheet IBE 1, 30min, Fe 100%, mean): 106.5%
%Fe 30min (ascorbate oxidation, Fe = 100%), single replicates ([2]; sheet IBE 1, 30min, Fe 100%, replicates): 113.3% and 104.9% and 102.6% and 110.5% and 113.6% and 110.3% and 106.1% and 101.1% and 95.68%
raw reading at čas 0 (time 0), průměr (mean) ([2]; sheet IBE 1, time 0, mean of 9 readings): 0.8163
raw reading at čas 0 (time 0), single replicates ([2]; sheet IBE 1, time 0, replicates of 2014-03-24 (two runs) and 2014-03-25): 0.8356 and 0.8379 and 0.8058 and 0.8059 and 0.8041 and 0.8006 and 0.8152 and 0.8134 and 0.828
odečet 0 (reading minus time 0 reading) at čas 10, průměr (mean) ([2]; sheet IBE 1, time 10, mean): -0.03248
raw reading at čas 10 (time 10), průměr (mean) ([2]; sheet IBE 1, time 10, mean of 9 readings): 0.7838
odečet 0 (reading minus time 0 reading) at čas 10, single replicates [2, 3]: -0.02971 and -0.02191 and -0.02781 and -0.03858 and -0.03648 and -0.03745 and -0.03205 and -0.03185
raw reading at čas 10 (time 10), single replicates [2, 3]: 0.7761 and 0.784 and 0.7763 and 0.762 and 0.7787 and 0.7769 and 0.7906 and 0.8036 and 0.8061
odečet 0 (reading minus time 0 reading) at čas 20, průměr (mean) ([2]; sheet IBE 1, time 20, mean): -0.06498
raw reading at čas 20 (time 20), průměr (mean) ([2]; sheet IBE 1, time 20, mean of 9 readings): 0.7513
odečet 0 (reading minus time 0 reading) at čas 20, single replicates [2, 4]: -0.0647 and -0.0595 and -0.0576 and -0.07087 and -0.07167 and -0.06987 and -0.06821 and -0.06221 and -0.06021
raw reading at čas 20 (time 20), single replicates [2, 4]: 0.7411 and 0.7464 and 0.7465 and 0.7297 and 0.7435 and 0.7598 and 0.7734 and 0.7777
odečet 0 (reading minus time 0 reading) at čas 30, průměr (mean) ([2]; sheet IBE 1, time 30, mean): -0.09465
raw reading at čas 30 (time 30), průměr (mean) ([2]; sheet IBE 1, time 30, mean of 9 readings): 0.7216
odečet 0 (reading minus time 0 reading) at čas 30, single replicates [2, 5]: -0.09786 and -0.09066 and -0.08866 and -0.09551 and -0.09811 and -0.09531 and -0.1001 and -0.09539 and -0.09029
raw reading at čas 30 (time 30), single replicates [2, 5]: 0.7079 and 0.7152 and 0.7154 and 0.7051 and 0.7171 and 0.7181 and 0.7279 and 0.7402 and 0.7477
%Fe 30min (ascorbate oxidation, Fe 100%), průměr ([2]; sheet IBE 3, 30min, Fe alone = 100%, mean (průměr) of the 9 replicates): 105.3%
%Fe 30min (ascorbate oxidation, Fe 100%) ([2]; sheet IBE 3, 30min, Fe alone = 100%, single replicates): 100.1% and 103.3% and 98.42% and 112.4% and 108.5% and 106.2% and 109.9% and 107% and 102%
Change of absorbance, odečet 0 (time 0 subtracted), čas 10, průměr ([2]; sheet IBE 3, time 10 minus time 0, mean (průměr)): -0.03537
Change of absorbance, odečet 0 (time 0 subtracted), čas 10 ([2]; sheet IBE 3, time 10 minus time 0, single replicates): -0.03156 and -0.03676 and -0.03266 and -0.04073 and -0.03893 and -0.03883 and -0.03458 and -0.03388 and -0.03038
Change of absorbance, odečet 0 (time 0 subtracted), čas 20, průměr ([2]; sheet IBE 3, time 20 minus time 0, mean (průměr)): -0.06757
Change of absorbance, odečet 0 (time 0 subtracted), čas 20 ([2]; sheet IBE 3, time 20 minus time 0, single replicates): -0.06509 and -0.07099 and -0.06549 and -0.07376 and -0.07016 and -0.07036 and -0.06559 and -0.06109
Change of absorbance, odečet 0 (time 0 subtracted), čas 30, průměr ([2]; sheet IBE 3, time 30 minus time 0, mean (průměr)): -0.0973
Change of absorbance, odečet 0 (time 0 subtracted), čas 30 ([2]; sheet IBE 3, time 30 minus time 0, single replicates): -0.09296 and -0.09586 and -0.09136 and -0.1043 and -0.1007 and -0.0986 and -0.1006 and -0.09796 and -0.09336
kaspáza 8, raw signal (caspase 8; 3 hodiny): 2039 and 1218.5 and 1153 and 868.5
kaspáza 8, raw signal, průměry (caspase 8; 3 hodiny): 1319.75
kaspáza 8, % kontroly (caspase 8; 3 hodiny): 98.01 % kontroly
kaspáza 8, signal / viabilita (caspase 8; 3 hodiny): 21.0632 and 12.5873 and 11.9107 and 8.972
kaspáza 8, signal / viabilita, průměry (caspase 8; 3 hodiny): 13.6332
kaspáza 8, raw signal (caspase 8; 24 hodin): 1556 and 1108.5 and 1675.5 and 1199
kaspáza 8, raw signal, průměry (caspase 8; 24 hodin): 1384.75
kaspáza 8, % kontroly (caspase 8; 24 hodin): 91.04 % kontroly
kaspáza 8, signal / viabilita (caspase 8; 24 hodin): 16.2773 and 11.596 and 17.5273 and 12.5427
kaspáza 8, signal / viabilita, průměry (caspase 8; 24 hodin): 14.4858
kaspáza 8, raw signal (caspase 8; 72 hodin): 6752 and 5806 and 7204 and 6996
kaspáza 8, raw signal, průměry (caspase 8; 72 hodin): 6689.5
kaspáza 8, % kontroly (caspase 8; 72 hodin): 103.53 % kontroly
kaspáza 8, signal / viabilita (caspase 8; 72 hodin): 72.5709 and 62.4033 and 77.4291 and 75.1935
kaspáza 8, signal / viabilita, průměry (caspase 8; 72 hodin): 71.8992
